Assay results from article PMC8018653, “Gender-based differences in brain and plasma pharmacokinetics of letrozole in sprague-dawley rats: Application of physiologically-based pharmacokinetic modeling to gain quantitative insights” (PLoS ONE, 2021).
Values joined by “and” are separate entries in the source; they are usually repeats but may differ in a detail not shown here. Identical values can stand only once. Like-named read-outs stand apart in the source and are kept apart here.

Columns and labels:
[1] = Single dose brain ECF pharmacokinetics by intracerebral microdialysis; type: in vivo, Sprague-Dawley rats; settings: single dose 4 mg/kg i.p.; for Tmax / AUC(0-t) / Kp uu: Sprague-Dawley, rat, ip; for Tmax / AUC(0-t): brain ECF (striatal microdialysate); for AUC(0-t): read-out: AUC 0–12, brain ECF; for Cmax, brain ECF / Kp uu: 4 mg/kg; for Kp uu: brain ECF / unbound plasma
Protocol: Within 10 minutes of collection, plasma was separated by centrifugation of the blood samples at 4,000 rpm for 15 min. Microdialysis samples were collected simultaneously through the probes at the same time points from 0–12 hours.

[2] = In vivo unbound fraction in brain (brain ECF / whole brain tissue homogenate); settings: Sprague-Dawley, rat, ip, healthy and tumor-bearing female rats, 4 mg/kg i.p., ~6 hrs, mean ± SD, read-out: Fraction unbound in brain (fu, brain)
Source text: Simcyp Animal Simulator V17 (Certara Inc.) was employed for developing a bottom-up whole body PBPK model incorporating the specified multi-compartment brain model. Based on its anatomy and physiology, the whole brain is described by three compartments, viz. brain blood, brain mass and cerebrospinal fluid (CSF) as illustrated in Fig 1 (Simcyp® Rat Simulator). For model development, the physiological/ system-specific parameters were inferred from the existing rodent species within the animal simulator while, the key drug- specific parameters used are summarized in Table 1. Briefly, all the physiochemical and binding to blood components (plasma proteins and erythrocytes) parameters of letrozole were derived from expansive literature review. […] Full-PBPK model was employed for drug distribution while the Rodgers and Rowland method or “Method 2”, as defined in Simcyp v17, predicted the volume of distribution (Vss). For the multi-compartment brain model, the passive permeability-surface area product on the BBB (PSB) was determined using the Crone- Renkin Equation [25, 26]: PSB=−Fpfln(1−Kin/Fpf) (3) where, Fpf is the cerebral blood or perfusion flow rate and Kin is the brain uptake clearance. […] The fu, brain for letrozole was experimentally determined in both healthy and tumor-bearing female Sprague-Dawley rats (N = 4/ group).

[3] = cited from earlier work
[4] = PBPK input; ref Chemicalize database; cited from earlier work
[5] = set-up: method as in PMID 23748921; settings: cited from earlier work
[6] = set-up: method as in PMID 11501174; settings: cited from earlier work; for CLpo: assuming 250 g average body weight
[7] = set-up: method as in PMID 16489364; settings: cited from earlier work
[8] = set-up: method as in PMID 17045772; settings: rat liver microsomes; cited from earlier work
[9] = set-up: method as in PMID 30357450; settings: NSG mice; cited from earlier work
P-glycoprotein (P-gp) = settings: cited from earlier work
[10] = Steady state brain ECF pharmacokinetics by intracerebral microdialysis; settings: for Kp uu at 264 h / Kp uu / Kp uu at 120 h: intraperitoneal; for Kp uu at 264 h: 11 days; for Kp uu: Kpuu, range over single dose and steady state (Cmax and AUC0-12); for Kp uu at 120 h: 5 days
Protocol: The average in vitro relative recovery of letrozole was determined at a flow rate of 2.0 μ1/min at 35°C.
Microdialysis probes were surgically implanted in jugular vein cannulated rats under anesthesia (ketamine/ xylazine 70/ 6 mg/kg i.p., Henry Schein, NY) one day prior to the experiment. Buprenorphine (Buprenex®, Henry Schein, NY) was administered for perioperative analgesia. The probe was inserted into the striatum with the following tip coordinates: A/P, 1.2 mm, L, 3.1 mm, and D/V −7.8 mm, according to the stereotaxic atlas of Paxinos and Watson [21]. The active portion of the membrane for the probes was 4.5 mm. Following implantation, the probes were connected to an infusion pump set to deliver modified Dulbecco’s phosphate buffered saline containing 1.2 mm CaCl2 and 5 mM glucose at a flow rate of 1 μl/min overnight.
To establish the steady state, letrozole was administered via the intraperitoneal route at a dose of 4mg/kg o.d for 11 days (female rats) and 5 days (male rats) based on the previously published data and our preliminary experiments. On the day of the experiment (last day of dosing), blood and dialysis samples were collected concurrently as described above at the following time points- pre-dose, 1, 2, 4, 6, 8 and12 h post administration. An additional 24 hr time point was included in the plasma sample collection and all the samples were stored at -80°C until analyzed.
Three sets of calibration plots were constructed for method validation.
Non-compartmental analysis (NCA) was performed using Phoenix WinNonlin® software (version 6.2.1, Pharsight, St. Louis, MO, USA) and the PK parameters determined included peak concentration (Cmax), time to reach peak concentration (Tmax), area under the concentration-time curve between time zero to the last observed concentration time point (AUC0- t) and the elimination half-life (t1/2). Actual sampling times were employed for calculations except for the pre-dose times, which were kept as zero. Since the blood sampling period spanned less than 4.5 half-lives in female rats, plasma AUC0-∞ values could not be determined reliably. Consequently, we were constrained to reporting AUC0-t values for letrozole in this study which was calculated using the linear trapezoidal method. For consistency, only AUC0-t values were reported for male rats as well. Cmax and Tmax values were obtained directly from the concentration-time data. […] Brain ECF concentrations were time-averaged over the collection interval and were corrected for the observed relative recovery. The brain-to-plasma unbound partition coefficients (Kpuu) were calculated as a ratio of the Cmax or AUC0-12 of letrozole levels in the brain ECF to corresponding plasma Cmax and AUC values corrected for plasma protein binding.

**Q.** For N#Cc1ccc(C(c2ccc(C#N)cc2)n2cncn2)cc1 [letrozole], which Tmax ([1]; female rats) is on record?
**A.** Its Tmax is 6.9 h.

**Q.** And the AUC(0-t) ([1]; female rats)?
**A.** Its AUC(0-t) is 5750 ng·h/mL.

**Q.** What about the Tmax ([1]; male rats) of the same compound?
**A.** The Tmax was 4.7 h.

**Q.** And the AUC(0-t) ([1]; male rats)?
**A.** Its AUC(0-t) is 2410 ng·h/mL.

**Q.** What about the “Cmax, brain ECF” value ([1]; female rats) of the same compound?
**A.** Its value is 660 ± 260 ng/ml and 660 (260)* ng/ml and 660 ng/ml.

**Q.** And the Kp uu ([1]; female, female rats, read-out: Kpuu (AUC0-12 brain ECF / plasma unbound))?
**A.** Its Kp uu is 1.3.

**Q.** And the Kp uu ([1]; female, female rats, read-out: Kpuu (Cmax brain ECF / plasma unbound))?
**A.** Its Kp uu is 1.4.

**Q.** What about the “Cmax, brain ECF” value ([1]; male rats) of the same compound?
**A.** Its value is 260 ± 80 ng/ml and 260 (80) ng/ml and 260 ng/ml.

**Q.** And the Kp uu ([1]; male, male rats, read-out: Kpuu (AUC0-12 brain ECF / plasma unbound))?
**A.** Its Kp uu is 0.6.

**Q.** What about the Kp uu ([1]; male, male rats, read-out: Kpuu (Cmax brain ECF / plasma unbound)) of the same compound?
**A.** The Kp uu was 0.6.

**Q.** And the “brain ECF AUC0-12, female versus male difference” value [1]?
**A.** The value was 2.4 fold.

**Q.** And the “brain ECF Cmax, female versus male difference” value [1]?
**A.** Its value is 2.5 fold.

**Q.** And the fraction unbound [2]?
**A.** Its fraction unbound is 0.58.

**Q.** What about the Blood-to-plasma partition ratio ([3]; PBPK input, ref CDER NDA 20–726) of the same compound?
**A.** Its Blood-to-plasma partition ratio is 0.8.

**Q.** And the plasma protein binding [3]?
**A.** Its plasma protein binding is “≈ 60%”.

**Q.** What about the Intrinsic solubility [4] of the same compound?
**A.** Its Intrinsic solubility is 62 µg/mL.

**Q.** And the logP [4]?
**A.** The logP was “≈ 2.5”.

**Q.** And the brain-to-plasma partition coefficients ([5]; brain and brain tumor tissue, female Sprague-Dawley rats)?
**A.** The brain-to-plasma partition coefficients was 0.5–1.0.

**Q.** And the “intra-tumoral levels relative to the contralateral tumor-free region” value [5]?
**A.** The value was 1.5 to 2 fold.

**Q.** And the Fa ([6]; PBPK input)?
**A.** Its Fa is 0.99.

**Q.** And the CLpo ([6]; females)?
**A.** The CLpo was 0.21 mL/min.

**Q.** And the CL ([6]; females)?
**A.** Its CL is 0.85 mL/min/kg.

**Q.** And the “Ka (first-order rate of absorption)” value ([6]; females)?
**A.** Its value is 0.49 h⁻¹.

**Q.** And the CLpo ([6]; males)?
**A.** Its CLpo is 0.77 mL/min.

**Q.** What about the CL ([6]; males) of the same compound?
**A.** Its CL is 3.08 mL/min/kg.

**Q.** And the “Ka (first-order rate of absorption)” value ([6]; males)?
**A.** Its value is 0.29 h⁻¹.

**Q.** What about the oral bioavailability [7] of the same compound?
**A.** Its oral bioavailability is roughly 100%.

**Q.** What about the “overall intrinsic clearance and formation rate of the carbinol metabolite, male versus female rats” value [8] of the same compound?
**A.** Its value is “about 3.0 fold”.

**Q.** What about the half-life [9] of the same compound?
**A.** Its half-life is ~ 3 hrs.

**Q.** And the “substrate for the efflux transporter P-glycoprotein (P-gp)” value (P-glycoprotein (P-gp))?
**A.** Its value is “not a substrate”.

**Q.** And the “accumulation at steady state (brain ECF Cmax and AUC0-12)” value ([10]; female rats)?
**A.** The value was 3.5 to 4.0 fold.

**Q.** What about the “predicted steady state average concentration, brain ECF” value ([10]; female rats) of the same compound?
**A.** Its value is ~1,000 ng/ml.

**Q.** What about the “Rac brain (observed accumulation ratio, AUC0-12)” value ([10]; female rats, Day 11 / Day 1) of the same compound?
**A.** The value was 4.2.

**Q.** What about the “Rac brain (observed accumulation ratio, Cmax)” value ([10]; female rats, Day 11 / Day 1) of the same compound?
**A.** The value was 3.5.

**Q.** And the Kp uu at 264 h ([10]; female, Sprague-Dawley, rat, brain ECF / unbound plasma, 4 mg/kg, Kpuu (AUC0-12 brain ECF / plasma unbound), female rats, steady state)?
**A.** Its Kp uu at 264 h is 1.3.

**Q.** And the Kp uu at 264 h ([10]; female, Sprague-Dawley, rat, brain ECF / unbound plasma, 4 mg/kg, Kpuu (Cmax brain ECF / plasma unbound), female rats, steady state)?
**A.** Its Kp uu at 264 h is 1.2.

**Q.** And the Kp uu ([10]; female, Sprague-Dawley, rat, brain ECF / unbound plasma, 4 mg/kg, female rats)?
**A.** The Kp uu was 1.2 to 1.4.

**Q.** And the “accumulation at steady state (brain ECF Cmax and AUC0-12)” value ([10]; male rats)?
**A.** The value was 2.0 fold.

**Q.** And the “predicted steady state average concentration, brain ECF” value ([10]; male rats)?
**A.** Its value is roughly 210 ng/mL.

**Q.** And the “Rac brain (observed accumulation ratio, AUC0-12)” value ([10]; male rats, Day 5 / Day 1)?
**A.** Its value is 2.0.

**Q.** And the “Rac brain (observed accumulation ratio, Cmax)” value ([10]; male rats, Day 5 / Day 1)?
**A.** The value was 1.9.

**Q.** What about the “Cmax, brain ECF” value ([10]; male rats, steady state, 4 mg/kg i.p. daily for 5 days, 4 mg/kg) of the same compound?
**A.** The value was 490 ± 240 ng/ml and 490 (240) ng/ml and 490 ng/ml.

**Q.** And the Kp uu at 120 h ([10]; male, Sprague-Dawley, rat, brain ECF (striatal microdialysate) / unbound plasma, 4 mg/kg, Kpuu (AUC0-12 brain ECF / plasma unbound), male rats, steady state)?
**A.** The Kp uu at 120 h was 0.9.

**Q.** What about the Tmax ([10]; male, Sprague-Dawley, rat, brain ECF (striatal microdialysate), ip, 4 mg/kg) of the same compound?
**A.** Its Tmax is 3.3 h.

**Q.** And the AUC(0-t) ([10]; male, Sprague-Dawley, rat, brain ECF (striatal microdialysate), ip, 4 mg/kg, AUC 0–12, brain ECF, male rats, steady state, 4 mg/kg i.p. daily for 5 days)?
**A.** Its AUC(0-t) is 4820 ng·h/mL.

**Q.** And the AUC(0-t) ([10]; male, Sprague-Dawley, rat, brain ECF (striatal microdialysate), ip, 4 mg/kg, brain ECF AUC 0–12, male rats, steady state, 4 mg/kg i.p. daily for 5 days)?
**A.** The AUC(0-t) was 4800 ng·h/mL.

**Q.** What about the Kp uu at 120 h ([10]; male, Sprague-Dawley, rat, brain ECF / unbound plasma, 4 mg/kg, Kpuu (Cmax brain ECF / plasma unbound), male rats, steady state) of the same compound?
**A.** The Kp uu at 120 h was 0.9.

**Q.** And the Kp uu ([10]; male, Sprague-Dawley, rat, brain ECF / unbound plasma, 4 mg/kg, male rats)?
**A.** The Kp uu was 0.6 to 0.9.

**Q.** What about the “brain ECF exposure (Cmax, AUC0-12), higher in female rats” value ([10]; steady state) of the same compound?
**A.** The value was 4.7 to 5 fold.
